# US20100129310A1, “STABILIZED DESLORATADINE COMPOSITION” (priority 2005, published 2010)
# Experiment: Compatibility of desloratadine with excipient materials, N-formyl desloratadine by HPLC
# Format: physicochemical
# Protocol: Compatibility of desloratadine with various excipient materials was determined by mixing the drug and an excipient, then subjecting the mixture to direct exposure for 14 days at 40° C. and 75% relative humidity. The analytical results for the presence of N-formyl desloratadine in the samples (as determined by HPLC) were as tabulated below, where ratios are expressed on a weight basis. Desloratadine and polacrilin resin (AMBERLITE IRP64) were dispersed in water and stirred for 2 hours, isolated by filtration, and then dried at 60° C. until the loss on drying was not more than 10% w/w when tested using an infrared moisture balance at 105° C. Where citric acid was used, the quantity of citric acid was selected to adjust the pH of the dispersion to about 6.5. Where lactose was used, the quantity of lactose is 6 times the weight of other materials, and the lactose is dry mixed with the desloratadine or dried desloratadine-resin mixture.
smiles,measurement,setting,value
"Clc1ccc2c(c1)CCc1cccnc1C2=C1CCNCC1 [Desloratadine, 8-chloro-6,11-dihydro-11-(4-piperidinylidene)-5H-benzo[5,6]-cyclohepta[1,2-b]pyridine]",% N-Formyl DCL Initial,Initial,Nil
same,% N-Formyl DCL After exposure,direct exposure for 14 days at 40° C. and 75% relative humidity,Nil
